Columns and labels:
[1] = tested on: alimentary intake of a rat; experiment: Action on the alimentary intake of a rat; assay type: in vivo; settings: 10 mg/kg intra-peritoneally, consumption monitored every hour for 5 hours
Description: The tests were carried out on groups of 5 rats weighing 250±10 g under the following conditions: the animals were placed individually in cages having a feeding trough described by FREGLY (J. Appln. Physiol., 1960, Vol. 15, p. 539) which had the advantage of avoiding the wastage of food presented when using powdered fodder. The rats were accustomed to taking their daily ration over 5 consecutive hours, drinking water being offered ad libitum. The amounts of food ingested were determined individually by weighing the feeding troughs and the consumptions were monitored every hour for 5 hours after the administration of 10 mg/kg of the compound intra-peritoneally. The amounts consumed were expressed in g/100 g of body weight per hour and the averages were compared with those obtained from the control animals by a DUNNET test.

Central CCK receptors = target: T1, Central CCK receptors (Rattus norvegicus, UniProt P30553); experiment: Central receptors: 3H CCK8 binding to rat cortex homogenate; settings: 0.5 nM 3H CCK8, 25° C., 30 minutes, read-out: Central CCK IC50: concentration necessary to inhibit the fixed specific radioactivity by 50%
T1 construct: The cortices of 20 male rats weighing 150 to 200 g were removed and were ground up with a Polytron; from tissue; host or cells: rat cerebral cortex membrane homogenate
T1 sequence (P30553 1-452): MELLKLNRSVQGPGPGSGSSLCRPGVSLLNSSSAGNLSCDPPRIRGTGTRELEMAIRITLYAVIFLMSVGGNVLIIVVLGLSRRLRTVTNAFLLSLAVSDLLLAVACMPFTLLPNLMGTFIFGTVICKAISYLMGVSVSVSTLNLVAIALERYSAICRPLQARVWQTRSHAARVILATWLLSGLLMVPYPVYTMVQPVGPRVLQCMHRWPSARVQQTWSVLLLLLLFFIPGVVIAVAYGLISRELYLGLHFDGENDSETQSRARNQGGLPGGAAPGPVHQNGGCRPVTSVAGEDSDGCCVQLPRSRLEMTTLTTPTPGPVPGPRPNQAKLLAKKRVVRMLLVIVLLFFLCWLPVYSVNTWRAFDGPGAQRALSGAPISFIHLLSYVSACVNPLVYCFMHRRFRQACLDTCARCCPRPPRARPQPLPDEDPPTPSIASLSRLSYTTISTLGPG
Description: The cortices of 20 male rats weighing 150 to 200 g were removed and were ground up with a Polytron in 0.32M sucrose. After centrifuging, the supernatant was collected and centrifuged. The residue was suspended in 120 ml of Hepes buffer, pH 7.4, (Hepes 10 mM, NaCl 130 mM, MgCl2, 6H2 O 5 mM, bacitracine 250 mg/liter, PMSF 1 mg/liter), and re-centrifuged. The residue was taken up in 120 ml of Hepes buffer pH 7.4, and recentrifuged at 30,000 g for 30 minutes. The residue was then taken up in 500 ml of Hepes buffer pH 7.4, which enabled 240 aliquots of 2 ml of homogenate to be obtained. The incubation was carried out at 25° C. for 30 minutes in the presence of 0.5 nM of 3H CCK8 and the product to be tested (10,000 micromoles for 1 dose, or with a range of 7 doses) or cold CCK8 (10^-6 M), which was the reference product. After the homogenate aliquots were returned to 0° C., they were filtered with Whatman GF/B filters and the filtrates were washed with 3×5 ml of a Tris HCl 50 mM buffer, pH 7.4. The results are expressed in IC50 : concentration necessary to inhibit the fixed specific radioactivity by 50% in the Table below.

Peripheral CCK receptors = target: T2, Peripheral CCK receptors (Rattus norvegicus, UniProt P30551); experiment: Peripheral receptors: 3H CCK8 binding to rat pancreas homogenate; settings: 3H CCK8, 25° C., 60 minutes, read-out: Peripheral CCK IC50: concentration necessary to inhibit the fixed specific radioactivity by 50%
T2 construct: The pancreases of 3 male rats weighing 150-200 g were removed and ground with a Polytron; from tissue; host or cells: rat pancreas membrane homogenate
T2 sequence (P30551 1-444): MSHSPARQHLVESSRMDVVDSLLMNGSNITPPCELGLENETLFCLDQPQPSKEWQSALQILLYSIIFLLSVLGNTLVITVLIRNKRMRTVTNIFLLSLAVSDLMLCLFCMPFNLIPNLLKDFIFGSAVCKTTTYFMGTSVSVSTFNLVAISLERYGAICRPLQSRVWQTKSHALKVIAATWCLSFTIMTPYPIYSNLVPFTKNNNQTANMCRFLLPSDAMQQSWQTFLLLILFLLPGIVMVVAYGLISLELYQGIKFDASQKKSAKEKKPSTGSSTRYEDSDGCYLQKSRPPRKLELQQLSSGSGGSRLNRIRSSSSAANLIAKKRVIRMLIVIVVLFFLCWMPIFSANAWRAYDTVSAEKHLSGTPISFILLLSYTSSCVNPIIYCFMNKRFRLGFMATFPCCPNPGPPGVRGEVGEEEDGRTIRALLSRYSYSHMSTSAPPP
Description: The pancreases of 3 male rats weighing 150-200 g were removed and ground with a Polytron (4 grindings, speed 3, with an interval of 10 seconds between grindings) and the homogenate was filtered over a gauze, then centrifuged at 30,000 g for 30 minutes. The residue obtained was taken up in 400 volumes (.perspectiveto.600 ml) of Tris 50 mM HCl buffer, pH 7.4, containing 2 g/liter of BSA, 0.1 mM of bacitracin, 5 mM of MgCl2 and 5 mM of dithiothreitol. 2 ml of homogenate aliquots were incubated at 25° C. for 60 minutes in the presence of […] 3H CCK8 and the product to be tested (10,000 micromoles for 1 dose or with a range of 7 doses) and cold CCK8 (10^-6 M) which was the reference product. After returning to 0° C., the aliquots were filtered with Whatman GF/B filters having been previously washed in a 0.05% solution of polyethyleneimine. The filtrate was washed with 3×5 ml of Tris HCl 50 mM buffer, pH 7.4. The results are expressed in IC50 : concentration necessary to inhibit the fixed specific radioactivity by 50%. (IC50 in nanomoles).

IC50 (Central CCK receptors) [nM] | IC50 (Peripheral CCK receptors) [nM] | SMILES | reduction of alimentary consumption relative to control animals [1]
700 | 53 | Cc1ccc(C(NC(=O)[C@H](CCC(=O)O)NC(=O)c2cc3ccccc3[nH]2)c2ccc(C)cc2)cc1 [Example 2, (S)-4-[[(1H-indol-2-yl)-carbonyl]-amino]-5-[[bis-(4-methylphenyl)-methyl]-amino]-5-oxo pentanoic acid] | 15%
10000 | 96 | O=C(O)CC[C@H](NC(=O)c1cc2ccccc2[nH]1)C(=O)NC(c1ccc(Cl)cc1)c1ccc(Cl)cc1 [Example 4, (S)-5-[[bis-(4-chlorophenyl)-methyl]-amino]-5-oxo-4-[[(1H-indol-2-yl)-carbonyl]-amino]-pentanoic acid] | –
682 | 32 | COc1ccccc1C(NC(=O)[C@H](CCC(=O)O)NC(=O)c1cc2ccccc2[nH]1)c1ccccc1 (stereo partly drawn) [Example 9, (4S)-4-[[(1H-indol-2-yl)-carbonyl]-amino]-5-[[(2-methoxyphenyl)-benzyl]-amino]-5-oxo pentanoic acid] | more than 50%
2660 | 1660 | O=C(O)CC[C@H](NC(=O)c1cc2ccccc2[nH]1)C(=O)NC1c2ccccc2CCc2ccccc21 [Example 13, (S)-5-[(10,11-dihydro-dibenzo-[a,d]-cyclohepten-5-yl)-amino]-4-[[(1H-indol-2-yl)-carbonyl]-amino]-5-oxo pentanoic acid] | –

Reference: patent publication US5064853A, “4(2-indolyl)2-amino-pentanedioic acids and cholecyostokinin use thereof” (Roussel Uclaf, priority 1989, dated 1991)
